# Source: patent publication US20230270804A1, “ANTI-HYPERCHOLESTEROLEMIA COMPOSITION AND A METHOD OF MANUFACTURING THE SAME” (NBI BIOSCIENCES PRIVATE LIMITED, priority 2020, published 2023)
# Columns and labels:
# Assay type in all cases: in vivo, Wistar strain albino rats
# [1] = test system: hypercholesterolemia induced wistar rat's models; assay: Prophylactic study: lipid profile (TC, TG, HDL-C, LDL-C, VLDL); conditions: for HDL-C / LDL-C / TC / TG / VLDL: HFD+normal diet
# Description: Wistar strain albino rats of body weight ranging from 190-225 g were selected for the present study. The temperature and humidity were kept at optimum (22+2° C.; 40-70% and animals were exposed to natural chronological day night cycles. The experiments were carried out in conformity with the Institutional Animal Ethics Committee.
# The 6 groups were as follows: • 1. Normal Control • 2.
# (§1) 1.5-2 ml blood sample was taken from retino-orbital chamber in vials for biochemical estimations at every 15 days. Investigations performed included detailed Total Cholesterol—TC (mg/dl), Triglyceride—TG (mg/dl), High Density Lipoprotein—HDL-C (mg/dl), Low Density Lipoprotein—LDL-C (mg/dl), Very Low-Density Lipoprotein—VLDL (mg/dl), WBC (10^3/u1), RBC (10^6/u1), Hb (g/dl), PCV (%), Reticulocyte (%), Platelet count 10^5/mm^3, Clotting time (Sec), Neutrophils, Lymphocyte, Monocyte and Eosinophil. The estimations were done with Ecoline kits from Erba Mannheim, ERBA diagnostics Mannheml, Germany using Semi Autoanalyzer RX50 of MicroLabs Instruments and COUNCELL21 of Tulip Diagnostics Pvt. Ltd. Lipid peroxidation (Plasma & Liver), HMG Co-Reductase, Creatine phosphokinase (CPK), Lactate dehydrogenase (LDH), SGOT and SGPT were estimated at the end of both the studies using the kits.
# [2] = Prophylactic study: hematological parameters; conditions: HFD+normal diet, day 0
# HMG CoA Reductase = biological target: T1, HMG CoA Reductase (Rattus norvegicus, UniProt P51639); assay: Therapeutic study: HMG CoA reductase activity in liver homogenate; conditions: after necropsy
# T1 construct: The tissue homogenate was prepared by homogenizing 1 gm of tissue (liver) with 10 ml of saline arsenate solution; from tissue; host or cells: rat liver homogenate
# T1 sequence (P51639 1-887): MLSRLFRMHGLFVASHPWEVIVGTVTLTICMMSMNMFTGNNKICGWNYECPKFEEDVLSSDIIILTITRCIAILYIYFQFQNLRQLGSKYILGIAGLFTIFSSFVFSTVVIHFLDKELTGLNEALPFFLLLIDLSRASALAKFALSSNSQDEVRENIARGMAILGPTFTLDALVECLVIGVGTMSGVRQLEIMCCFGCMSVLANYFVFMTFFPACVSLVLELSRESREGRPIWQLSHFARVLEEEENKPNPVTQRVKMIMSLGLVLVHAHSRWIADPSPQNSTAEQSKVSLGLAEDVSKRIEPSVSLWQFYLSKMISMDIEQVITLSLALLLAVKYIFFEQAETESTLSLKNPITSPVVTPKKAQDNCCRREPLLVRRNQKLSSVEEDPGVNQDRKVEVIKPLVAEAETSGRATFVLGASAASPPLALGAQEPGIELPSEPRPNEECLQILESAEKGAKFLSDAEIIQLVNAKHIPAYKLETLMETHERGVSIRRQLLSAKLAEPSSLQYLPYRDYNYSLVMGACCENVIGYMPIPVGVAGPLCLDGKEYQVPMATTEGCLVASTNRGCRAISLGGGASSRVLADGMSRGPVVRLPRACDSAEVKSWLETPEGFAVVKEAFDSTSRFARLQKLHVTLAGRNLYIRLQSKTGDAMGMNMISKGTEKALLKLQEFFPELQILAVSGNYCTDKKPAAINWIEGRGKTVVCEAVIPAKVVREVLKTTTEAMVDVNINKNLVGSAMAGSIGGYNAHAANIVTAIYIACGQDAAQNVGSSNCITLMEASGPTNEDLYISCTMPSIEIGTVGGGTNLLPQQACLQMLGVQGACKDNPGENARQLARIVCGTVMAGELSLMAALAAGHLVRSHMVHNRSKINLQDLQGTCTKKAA
# Description: as §1
# The tissue homogenate was prepared by homogenizing 1 gm of tissue (liver) with 10 ml of saline arsenate solution. Further equal volumes of the fresh 10% tissue homogenate and diluted perchloric acid were mixed and allowed to stand for 5 minute and centrifuge (2000 rpm, 10 minutes). […] The readings were taken after 10 minutes at 540 nm vs. a similarly treated saline/arsenate blank.
compound,measurement,setting,value
"CC(C)c1c(C(=O)Nc2ccccc2)c(-c2ccccc2)c(-c2ccc(F)cc2)n1CC[C@@H](O)C[C@@H](O)CC(=O)O [Statin, Atorvastatin]",HDL-C,[1]; day 0,34.60 ± 1.50 mg/dL
same,LDL-C,[1]; day 0,47.10 ± 1.25 mg/dL
same,TC,[1]; day 0,81.95 ± 1.35 mg/dL
same,TG,[1]; day 0,16.75 ± 1.10 mg/dL
same,VLDL,[1]; day 0,2.48 ± 0.15 mg/dL
same,HDL-C,[1]; day 15,31.56 ± 1.26 mg/dL
same,LDL-C,[1]; day 15,48.68 ± 0.29 mg/dL
same,TC,[1]; day 15,85.24 ± 1.55 mg/dL
same,VLDL,[1]; day 15,2.86 ± 0.35 mg/dL
same,HDL-C,[1]; day 30,35.66 ± 2.08 mg/dL
same,LDL-C,[1]; day 30,56.60 ± 4.50 mg/dL
same,TC,[1]; day 30,85.66 ± 4.04 mg/dL
same,TG,[1]; day 30,22.66 ± 3.10 mg/dL
same,VLDL,[1]; day 30,2.96 ± 0.02 mg/dL
same,HDL-C,[1]; day 45,38.33 ± 5.85 mg/dL
same,LDL-C,[1]; day 45,57 ± 4.0 mg/dL
same,TC,[1]; day 45,87.5 ± 5.04 mg/dL
same,TG,[1]; day 45,24.86 ± 4.20 mg/dL
same,VLDL,[1]; day 45,3.03 ± 0.19 mg/dL
same,HDL-C,[1]; day 60,39.60 ± 5.57 mg/dL
same,LDL-C,[1]; day 60,57.23 ± 4.43 mg/dL
same,TC,[1]; day 60,88.5 ± 4.44 mg/dL
same,TG,[1]; day 60,24.4 ± 4.61 mg/dL
same,VLDL,[1]; day 60,3.0 ± 0.13 mg/dL
same,HDL-C,[1]; day 75,33.53 ± 1.92 mg/dL
same,LDL-C,[1]; day 75,55.27 ± 4.39 mg/dL
same,TC,[1]; day 75,90.95 ± 2.05 mg/dL
same,TG,[1]; day 75,22.67 ± 4.16 mg/dL
same,VLDL,[1]; day 75,2.98 ± 0.84 mg/dL
same,HDL-C,[1]; day 90,34.26 ± 1.26 mg/dL
same,LDL-C,[1]; day 90,52.83 ± 1.76 mg/dL
same,TC,[1]; day 90,90.22 ± 2.10 mg/dL
same,TG,[1]; day 90,21.93 ± 3.90 mg/dL
same,VLDL,[1]; day 90,3.12 ± 0.79 mg/dL
same,increase in TC,"[1]; prophylactic study, after HFD diet treatment",10%
same,Platelet count,[2],1040 ± 15.2 10³/µL
same,HMG Co Reductase,HMG CoA Reductase; HFD Continued,224.83 ± 18.48 U/mg
same,HMG Co Reductase,HMG CoA Reductase; HFD Discontinued,170.03 ± 2.71 U/mg
